Measured values: PubChem BioAssay (NCI)
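GI50: concentration for 50% inhibition of growth. TGI: total growth inhibition.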

Key:
Test in all cases: NCI tumour cell line growth inhibition, 384-well format
[1] = tested on: 786-0 renal
[2] = tested on: A498 renal
[3] = tested on: A549 NSCLC
[4] = tested on: ACHN renal
[5] = tested on: BT-549 breast
[6] = tested on: CAKI-1 renal
[7] = tested on: CCRF-CEM leukemia
[8] = tested on: COLO 205 colon
[9] = tested on: DU-145 prostate
[10] = tested on: HCC-2998 colon
[11] = tested on: HCT-116 colon
[12] = tested on: HCT-15 colon
[13] = tested on: HL-60(TB) leukemia
[14] = tested on: HOP-62 NSCLC
[15] = tested on: HOP-92 NSCLC
[16] = tested on: HT29 colon
[17] = tested on: IGROV1 ovarian
[18] = tested on: K-562 leukemia
[19] = tested on: KM12 colon
[20] = tested on: LOX IMVI melanoma
[21] = tested on: M14 melanoma
[22] = tested on: MALME-3M melanoma
[23] = tested on: MCF7 breast
[24] = tested on: MDA-MB-231 breast
[25] = tested on: MDA-MB-435 melanoma
[26] = tested on: MDA-MB-468 breast
[27] = tested on: MOLT-4 leukemia
[28] = tested on: NCI-H226 lung
[29] = tested on: NCI-H23 lung
[30] = tested on: NCI-H322M lung
[31] = tested on: NCI-H460 NSCLC
[32] = tested on: NCI-H522 lung
[33] = tested on: NCI/ADR-RES ovarian
[34] = tested on: OVCAR-3 ovarian
[35] = tested on: OVCAR-4 ovarian
[36] = tested on: OVCAR-5 ovarian
[37] = tested on: OVCAR-8 ovarian
[38] = tested on: PC-3 prostate
[39] = tested on: RPMI-8226 leukemia
[40] = tested on: RXF 393 renal
[41] = tested on: SF-268 CNS
[42] = tested on: SF-295 CNS
[43] = tested on: SF-539 CNS
[44] = tested on: SK-MEL-2 melanoma
[45] = tested on: SK-MEL-28 melanoma
[46] = tested on: SK-MEL-5 melanoma
[47] = tested on: SK-OV-3 ovarian
[48] = tested on: SN12C renal
[49] = tested on: SNB-19 CNS
[50] = tested on: SR leukemia
[51] = tested on: SW-620 colon
[52] = tested on: T-47D breast
[53] = tested on: TK-10 renal
[54] = tested on: U251 glioblastoma
[55] = tested on: UACC-257 melanoma
[56] = tested on: UACC-62 melanoma
[57] = tested on: UO-31 renal
[58] = tested on: EKVX NSCLC
[59] = tested on: HS 578T breast
[60] = tested on: SNB-75 CNS

Nc1ncn([C@H]2C[C@H](OP(=O)(O)OC[C@H]3O[C@@H](n4cnc5c(=O)[nH]c(N)nc54)C[C@@H]3O)[C@@H](CO)O2)c(=O)n1
GI50 [1]: 3.34 µM | TGI [1]: 31.1 µM | GI50 [2]: 37.7 µM | TGI [2]: > 100 µM | GI50 [3]: 10.8 µM | TGI [3]: > 100 µM | GI50 [4]: 2330 nM | TGI [4]: 83.2 µM | GI50 [5]: 6.95 µM | TGI [5]: 40.6 µM | GI50 [6]: 7.79 µM | TGI [6]: > 100 µM | GI50 [7]: 72.4 nM | TGI [7]: 1880 nM | GI50 [8]: 68.9 µM | TGI [8]: > 100 µM | GI50 [9]: 33.3 µM | TGI [9]: > 100 µM | GI50 [10]: 2820 nM | TGI [10]: > 100 µM | GI50 [11]: 2790 nM | TGI [11]: > 100 µM | GI50 [12]: > 100 µM | TGI [12]: > 100 µM | GI50 [13]: 1160 nM | TGI [13]: 18.2 µM | GI50 [14]: 1830 nM | TGI [14]: 53.3 µM | GI50 [15]: 54.5 µM | TGI [15]: > 100 µM | GI50 [16]: 46.5 µM | TGI [16]: > 100 µM | GI50 [17]: > 100 µM | TGI [17]: > 100 µM | GI50 [18]: 1480 nM | TGI [18]: > 100 µM | GI50 [19]: > 100 µM | TGI [19]: > 100 µM | GI50 [20]: 13.5 µM | TGI [20]: 37.4 µM | GI50 [21]: 922 nM | TGI [21]: > 100 µM | GI50 [22]: 20.6 µM | TGI [22]: > 100 µM | GI50 [23]: 14 µM | TGI [23]: > 100 µM | GI50 [24]: 38.3 µM | TGI [24]: > 100 µM | GI50 [25]: 43.6 µM | TGI [25]: > 100 µM | GI50 [26]: 43.1 nM | TGI [26]: 368 nM | GI50 [27]: 56.6 nM | TGI [27]: 373 nM | GI50 [28]: 32.7 µM | TGI [28]: > 100 µM | GI50 [29]: > 100 µM | TGI [29]: > 100 µM | GI50 [30]: 28.8 µM | TGI [30]: > 100 µM | GI50 [31]: 763 nM | TGI [31]: > 100 µM | GI50 [32]: 4 µM | TGI [32]: 71.3 µM | GI50 [33]: > 100 µM | TGI [33]: > 100 µM | GI50 [34]: > 100 µM | TGI [34]: > 100 µM | GI50 [35]: > 100 µM | TGI [35]: > 100 µM | GI50 [36]: 77.6 µM | TGI [36]: > 100 µM | GI50 [37]: 10.8 µM | TGI [37]: > 100 µM | GI50 [38]: 28.4 µM | TGI [38]: > 100 µM | GI50 [39]: 71.4 nM | TGI [39]: 451 nM | GI50 [40]: 1050 nM | TGI [40]: 6.21 µM | GI50 [41]: 12.4 µM | TGI [41]: 56.6 µM | GI50 [42]: > 100 µM | TGI [42]: > 100 µM | GI50 [43]: 20.8 µM | TGI [43]: > 100 µM | GI50 [44]: > 100 µM | TGI [44]: > 100 µM | GI50 [45]: 26.1 µM | TGI [45]: > 100 µM | GI50 [46]: 437 nM | TGI [46]: 10.7 µM | GI50 [47]: > 100 µM | TGI [47]: > 100 µM | GI50 [48]: 5.84 µM | TGI [48]: 26.4 µM | GI50 [49]: > 100 µM | TGI [49]: > 100 µM | GI50 [50]: 6.81 µM | TGI [50]: 25.5 µM | GI50 [51]: 18.5 µM | TGI [51]: > 100 µM | GI50 [52]: 13 µM | TGI [52]: 47 µM | GI50 [53]: 32.2 µM | TGI [53]: > 100 µM | GI50 [54]: 11.2 µM | TGI [54]: > 100 µM | GI50 [55]: > 100 µM | TGI [55]: > 100 µM | GI50 [56]: 26.6 µM | TGI [56]: > 100 µM | GI50 [57]: > 100 µM | TGI [57]: > 100 µM

Cc1ccccc1C(C(=O)NC1CCCCC1)N(C(=O)CNc1ncccc1F)c1cccc(F)c1 (configuration not stated)
GI50 [1]: > 100 µM | TGI [1]: > 100 µM | GI50 [2]: > 100 µM | TGI [2]: > 100 µM | GI50 [3]: > 100 µM | TGI [3]: > 100 µM | GI50 [4]: > 100000 nM | TGI [4]: > 100 µM | GI50 [5]: > 100 µM | TGI [5]: > 100 µM | GI50 [6]: > 100 µM | TGI [6]: > 100 µM | GI50 [7]: > 100000 nM | TGI [7]: > 100000 nM | GI50 [8]: > 100 µM | TGI [8]: > 100 µM | GI50 [9]: > 100 µM | TGI [9]: > 100 µM | GI50 [58]: > 100 µM | TGI [58]: > 100 µM | GI50 [10]: > 100000 nM | TGI [10]: > 100 µM | GI50 [11]: > 100000 nM | TGI [11]: > 100 µM | GI50 [12]: > 100 µM | TGI [12]: > 100 µM | GI50 [13]: > 100000 nM | TGI [13]: > 100 µM | GI50 [14]: > 100000 nM | TGI [14]: > 100 µM | GI50 [15]: > 100 µM | TGI [15]: > 100 µM | GI50 [59]: > 100 µM | TGI [59]: > 100 µM | GI50 [16]: > 100 µM | TGI [16]: > 100 µM | GI50 [17]: > 100 µM | TGI [17]: > 100 µM | GI50 [18]: > 100000 nM | TGI [18]: > 100 µM | GI50 [19]: > 100 µM | TGI [19]: > 100 µM | GI50 [20]: > 100 µM | TGI [20]: > 100 µM | GI50 [21]: > 100000 nM | TGI [21]: > 100 µM | GI50 [22]: > 100 µM | TGI [22]: > 100 µM | GI50 [23]: > 100 µM | TGI [23]: > 100 µM | GI50 [24]: > 100 µM | TGI [24]: > 100 µM | GI50 [25]: > 100 µM | TGI [25]: > 100 µM | GI50 [26]: > 100000 nM | TGI [26]: > 100000 nM | GI50 [27]: > 100000 nM | TGI [27]: > 100000 nM | GI50 [28]: > 100 µM | TGI [28]: > 100 µM | GI50 [29]: > 100 µM | TGI [29]: > 100 µM | GI50 [30]: > 100 µM | TGI [30]: > 100 µM | GI50 [31]: > 100000 nM | TGI [31]: > 100 µM | GI50 [32]: > 100 µM | TGI [32]: > 100 µM | GI50 [33]: > 100 µM | TGI [33]: > 100 µM | GI50 [34]: > 100 µM | TGI [34]: > 100 µM | GI50 [35]: > 100 µM | TGI [35]: > 100 µM | GI50 [36]: > 100 µM | TGI [36]: > 100 µM | GI50 [37]: > 100 µM | TGI [37]: > 100 µM | GI50 [38]: > 100 µM | TGI [38]: > 100 µM | GI50 [39]: > 100000 nM | TGI [39]: > 100000 nM | GI50 [40]: > 100000 nM | TGI [40]: > 100 µM | GI50 [41]: > 100 µM | TGI [41]: > 100 µM | GI50 [42]: > 100 µM | TGI [42]: > 100 µM | GI50 [43]: > 100 µM | TGI [43]: > 100 µM | GI50 [44]: > 100 µM | TGI [44]: > 100 µM | GI50 [45]: > 100 µM | TGI [45]: > 100 µM | GI50 [46]: > 100000 nM | TGI [46]: > 100 µM | GI50 [47]: > 100 µM | TGI [47]: > 100 µM | GI50 [48]: > 100 µM | TGI [48]: > 100 µM | GI50 [49]: > 100 µM | TGI [49]: > 100 µM | GI50 [60]: > 100 µM | TGI [60]: > 100 µM | GI50 [51]: > 100 µM | TGI [51]: > 100 µM | GI50 [52]: > 100 µM | TGI [52]: > 100 µM | GI50 [53]: > 100 µM | TGI [53]: > 100 µM | GI50 [54]: > 100 µM | TGI [54]: > 100 µM | GI50 [55]: > 100 µM | TGI [55]: > 100 µM | GI50 [56]: > 100 µM | TGI [56]: > 100 µM | GI50 [57]: > 100 µM | TGI [57]: > 100 µM
